Key:
Magnaporthe grisea = assay: whole plant or invertebrate; assay type: in vivo; details: for Test A control value class: Blast on rice, class of control value; for Test A control value: 250 ppm drug solution sprayed on test plant
Puccinia recondita = assay: Test Example E: Brown rust on wheat; assay type: in vivo; details: for Test E control value class: Brown rust on wheat, class of control value; for Test E control value: 250 ppm drug solution sprayed on test plant
Plasmopara viticola = assay: Test Example G: Downy mildew on vine; details: for Test G control value class: Downy mildew on vine (Neomuscat), 250 ppm spray, 2.5 ml/pot, assessed 7 to 10 days after inoculation; for Test G control value: 250 ppm drug solution sprayed (2.5 ml/pot), grape Neomuscat, 7 to 10 days after inoculation
Phytophthora infestans = assay: whole plant or invertebrate; assay type: in vivo; details: for Test F control value class: Late blight on tomato, class of control value; for Test F control value: 250 ppm drug solution sprayed on test plant
Alternaia brassicicola = assay: Test Example C: Alternaria sooty spot on cabbage; assay type: in vivo; details: for Test C control value class: Alternaria sooty spot on cabbage, class of control value; for Test C control value: 250 ppm drug solution sprayed on test plant
Text: Seeds of a test plant (cabbage variety: Shikidori) were planted and cultivated until the cotyledons extended.
<Control Value> Control value=100{1−(n/3)}

[1] = tested on: Blumeria graminis f. sp. hordei; assay: Test Example D: Powdery mildew on barley; details: for Test D control value class: Powdery mildew on barley, class of control value; for Test D control value: 250 ppm drug solution sprayed on test plant
Botrytis cinerea = assay: Test Example B: Gray mold on tomato; details: for Test B control value class: Gray mold on tomato, class of control value; for Test B control value: 250 ppm drug solution sprayed on test plant
[2] = tested on: Colletotrichum orbiculare; assay: Test Example H: Anthracnose on cucumber; details: for Test H control value class: Anthracnose on cucumber (Sagami Hanjiro), 250 ppm spray, 2.5 ml/pot, assessed 6 to 10 days after inoculation; for Test H control value: 250 ppm drug solution sprayed (2.5 ml/pot), cucumber Sagami Hanjiro, 6 to 10 days after inoculation

SMILES | Test A control value class (Magnaporthe grisea) | Test E control value class (Puccinia recondita) | Test G control value class (Plasmopara viticola) | Test F control value class (Phytophthora infestans) | Test C control value class (Alternaia brassicicola) | Test D control value class [1] | Test B control value class (Botrytis cinerea) | Test H control value class [2] | Test A control value (Magnaporthe grisea) | Test E control value (Puccinia recondita) | Test G control value (Plasmopara viticola) | Test F control value (Phytophthora infestans) | Test C control value (Alternaia brassicicola) | Test D control value [1] | Test B control value (Botrytis cinerea) | Test H control value [2]
CCC(=O)c1cc(Cl)c(=O)n(CC)c1-c1c(F)cc(F)cc1F [compound 49] | H (more than 50% control value) | H (more than 50% control value) | L (50% or less control value) | L (50% or less control value) | H (more than 50% control value) | H (more than 50% control value) | H (more than 50% control value) | H (more than 50% control value) | – | – | – | – | – | – | – | –
CCn1c(-c2ccc(Cl)cc2F)c(CC(C)C)cc(Cl)c1=O [compound 158] | H (more than 50% control value) | H (more than 50% control value) | H (more than 50% control value) | L (50% or less control value) | H (more than 50% control value) | H (more than 50% control value) | H (more than 50% control value) | H (more than 50% control value) | – | – | – | – | – | – | – | –
CCn1c(-c2c(F)cc(F)cc2F)c(C(C)(F)C(C)C)cc(Cl)c1=O (racemic) [compound 166] | H (more than 50% control value) | H (more than 50% control value) | H (more than 50% control value) | H (more than 50% control value) | H (more than 50% control value) | H (more than 50% control value) | H (more than 50% control value) | H (more than 50% control value) | – | – | – | – | – | – | – | –
CCCc1cc(Br)c(=O)n(CC(F)F)c1-c1c(F)cc(OC)cc1F [compound 476] | – | – | – | – | – | – | – | – | H (more than 50% control value) | H (more than 50% control value) | H (more than 50% control value) | L (50% or less control value) | H (more than 50% control value) | H (more than 50% control value) | H (more than 50% control value) | H (more than 50% control value)
COC(c1cc(Cl)c(=O)n(C)c1-c1c(F)cc(F)cc1F)C(C)C (stereo not shown) [compound 496] | – | – | – | – | – | – | – | – | H (more than 50% control value) | H (more than 50% control value) | H (more than 50% control value) | L (50% or less control value) | H (more than 50% control value) | H (more than 50% control value) | H (more than 50% control value) | H (more than 50% control value)
CCn1c(-c2ccc(C)cc2F)c(CC(C)C)cc(Cl)c1=O [compound 146] | H (more than 50% control value) | H (more than 50% control value) | H (more than 50% control value) | L (50% or less control value) | H (more than 50% control value) | H (more than 50% control value) | H (more than 50% control value) | L (50% or less control value) | – | – | – | – | – | – | – | –
CCn1c(-c2c(F)cccc2F)c(COC(C)C)cc(Cl)c1=O [compound 57] | L (50% or less control value) | H (more than 50% control value) | L (50% or less control value) | L (50% or less control value) | H (more than 50% control value) | H (more than 50% control value) | H (more than 50% control value) | H (more than 50% control value) | – | – | – | – | – | – | – | –
CCOC(C)(c1cc(Cl)c(=O)n(C)c1-c1c(F)cc(F)cc1F)C(C)C (stereo not shown) [compound 451] | – | – | – | – | – | – | – | – | H (more than 50% control value) | L (50% or less control value) | L (50% or less control value) | L (50% or less control value) | L (50% or less control value) | H (more than 50% control value) | L (50% or less control value) | L (50% or less control value)
CCC(=O)c1cc(Cl)c(=O)n(CC)c1-c1c(F)cc(OC)cc1F [compound 51] | H (more than 50% control value) | H (more than 50% control value) | L (50% or less control value) | L (50% or less control value) | H (more than 50% control value) | H (more than 50% control value) | H (more than 50% control value) | H (more than 50% control value) | – | – | – | – | – | – | – | –
CCCc1cc(Br)c(=O)n(CC)c1-c1ccc(OC)cc1C [compound 413] | – | – | – | – | – | – | – | – | H (more than 50% control value) | H (more than 50% control value) | L (50% or less control value) | L (50% or less control value) | H (more than 50% control value) | L (50% or less control value) | H (more than 50% control value) | H (more than 50% control value)
CCn1c(-c2c(F)cc(OC)cc2F)c(C(CC(C)C)OC)cc(Cl)c1=O (stereo not shown) [compound 87] | L (50% or less control value) | H (more than 50% control value) | L (50% or less control value) | L (50% or less control value) | H (more than 50% control value) | H (more than 50% control value) | H (more than 50% control value) | H (more than 50% control value) | – | – | – | – | – | – | – | –

Source: US11147272B2, “Pyridone compounds and agricultural and horticultural fungicides comprising the same as active ingredients” (MITSUI CHEMICALS AGRO, INC., priority 2017, dated 2021)
